Reference: PubChem BioAssay (NCI)
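Interpolation was linear, between the two tested concentrations surrounding the appropriate level; five concentrations were tested over 48 hours in 96-well plates. TGI is the concentration that stops growth completely.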

What was measured:
Test in all cases: NCI anticancer screen, dose series, 48 h
DU-145 prostate = tested on: DU-145 prostate
SK-MEL-28 melanoma = tested on: SK-MEL-28 melanoma
PC-3 prostate = tested on: PC-3 prostate
MDA-MB-231 breast = tested on: MDA-MB-231 breast
SNB-75 CNS = tested on: SNB-75 CNS
U251 CNS = tested on: U251 CNS
LOX IMVI melanoma = tested on: LOX IMVI melanoma
786-0 renal = tested on: 786-0 renal
K-562 leukemia = tested on: K-562 leukemia
MOLT-4 leukemia = tested on: MOLT-4 leukemia
T-47D breast = tested on: T-47D breast
NCI-H522 lung = tested on: NCI-H522 lung
OVCAR-8 ovarian = tested on: OVCAR-8 ovarian
NCI-H460 lung = tested on: NCI-H460 lung
UACC-62 melanoma = tested on: UACC-62 melanoma
MDA-MB-435 = tested on: MDA-MB-435
ACHN renal = tested on: ACHN renal
RXF 393 renal = tested on: RXF 393 renal
SF-539 CNS = tested on: SF-539 CNS

Structure (SMILES)	TGI (DU-145 prostate) [µM]	TGI (SK-MEL-28 melanoma) [µM]	TGI (PC-3 prostate) [µM]	TGI (MDA-MB-231 breast) [µM]	TGI (SNB-75 CNS) [µM]	TGI (U251 CNS) [µM]	TGI (LOX IMVI melanoma) [µM]	TGI (786-0 renal) [µM]	TGI (K-562 leukemia) [µM]	TGI (MOLT-4 leukemia) [µM]	TGI (T-47D breast) [µM]	TGI (NCI-H522 lung) [µM]	TGI (OVCAR-8 ovarian) [µM]	TGI (NCI-H460 lung) [µM]	TGI (UACC-62 melanoma) [µM]	TGI (MDA-MB-435) [µM]	TGI (ACHN renal) [µM]	TGI (RXF 393 renal) [µM]	TGI (SF-539 CNS) [µM]
O=c1oc2ccccc2c(O)c1C(c1cnc2ccccc2c1)c1c(O)c2ccccc2oc1=O	> 100	> 100	> 100	> 100	52.7	> 100	> 100	> 100	> 100	97.7	> 100	> 100	> 100	> 100	35.4	> 100			
COc1ccc2c(c1)-c1c(c3cc(OC)ccc3n1CCCN(C)C)CC2	33.4	13	25.3	30.5	13.9	27	20.9	> 100	13.2	30.9	24.8	25.7	30.7	42.9	20.6	15.1	35.9	20.2	
CCOC(=O)c1ccc(C(=O)n2ccnc2)[nH]1	> 100	> 100	> 100	> 100	> 100	> 100	> 100	> 100	> 100	> 100	> 100	> 100	> 100	> 100	> 100	> 100	> 100	> 100	
CCC1(CC)C(=O)N(C(=O)c2ccccc2)N(C(=O)c2ccc(Cl)cc2)C1=O	> 75	> 75	> 75	> 75	> 75	> 75	> 75	> 75	> 75	47.7	> 75	> 75	> 75	> 75	> 75	> 75	> 75	> 75	
COc1ccc2c(C)c(Oc3c(Cl)c(Cl)c(O)c(C#N)c3C#N)oc2c1	> 100	> 100	> 100	> 100	> 100	> 100	> 100	> 100	> 100	> 100	> 100	> 100	> 100	> 100	> 100	> 100	> 100		> 100
CC(C)CCNC(=O)C(CC(C)C)NC(=O)[C@H]1O[C@@H]1C(=O)O (stereo not given in full)	> 100	> 100	> 100	> 100	> 100	> 100		> 100	> 100	> 100	> 100	> 100	> 100	> 100	> 100	> 100			> 100
CCCC1CC(=O)NC(=O)C1C(=O)OC(C)(C)C (stereo not given)	> 100	> 100	> 100	> 100	> 100	> 100	> 100	> 100	> 100	> 100	> 100	> 100	> 100	> 100	> 100	> 100	> 100	> 100	
COc1ccc2[nH]c3c(c2c1)CC(=O)N1CCCC(CC3O)C1 (stereo not given)	> 100	> 100	> 100	> 100	> 100	> 100	> 100	> 100	> 100		> 100	> 100	> 100	> 100	> 100	> 100	> 100		> 100
O=[N+]([O-])c1ccc(N/N=C2/CC3=C2CCCCCCCCCC3)c([N+](=O)[O-])c1	> 100	> 100	> 100	> 100	> 100	> 100		> 100	> 100	> 100	> 100	> 100	> 100	> 100	> 100	> 100	> 100	> 100	
COc1cc(C2OC(N)=C(C#N)C3=C2C(C)CCC3)cc(OC)c1OC (stereo not given)	> 100	> 100	> 100	> 100	94.8	> 100	> 100	> 100	> 100	> 100	> 100		> 100		> 100	> 100	> 100	> 100	> 100
Cc1cc(C)nc(NS(=O)(=O)c2ccc(Nc3c4ccccc4nc4c(C(=O)NC(CO)(CO)CO)cccc34)cc2)n1	> 100	62.5	> 100	> 100	55.2	83.5	42.2	> 100	> 100	> 100	> 100	31.7	> 100	35.3	> 100	51.6	> 100		
